According to patent EP2246037A2, “Anti-aging and whitening properties of quercetin, 18a-glycyrrhetinic acid, hederagenin and its derivatives” (Korres S.A. Natural Products, priority 2009, dated 2010):
“Also recorded” adds a separate entry of the source.

Legend:
[1] = tested on: HFL-1 human diploid fibroblasts; assay: Lifespan (cumulative population doublings) and morphology of fibroblasts under continuous treatment; type: cell-based; set-up: key to cpd: cumulative population doublings: CPD=Σ LOG[Nfinal/Ninitial]/LOG[2]; settings: for appearance of the senescent phenotype: summary of sections 1 and 2
Description: (§1) The steps, methods and results that were obtained regarding the anti-aging properties of the examined substances are the following: • 1) Study of the lifespan of human diploid fibroblasts in vitro in the presence of the substances. • 1.1. HFL-1 human diploid fibroblasts (HDFs) were used in in vitro conditions (growth at 37°C, 5% CO2 and 95% humidity). • 1.2. The cells were maintained in Dulbecco's modified Eagle's medium (DMEM ®; Invitrogen Life Technologies Inc.) supplemented with 10% (v/v) fetal calf serum, 100 Units/ml penicillin, 100 µg/ml strepromycin, 2 mM glutamine and 1% (v/v) non-essential amino acids (complete medium). • 1.3. The cells were constantly cultured in culture medium supplemented with the substances [final concentration for quercetin (QUER), 18α-glycyrrhetinic acid (18α GA), and hederagenin (HED): 2 µg/ml and for quercetin caprylate (QU-CAP) three concentrations were applied: 0.5, 2 and 5 µg/ml]. Quercetin, 18α-glycyrrhetinic acid and hederagenin were diluted in DMSO (dimethyl sulfoxide) whereas quercetin caprylate was diluted in caprilic/capric triglycerides (CAP). Therefore, the control cultures were incubated in medium supplemented with 0.1% DMSO or 0.1% CAP. • 1.4. The cells were replenished with fresh media supplemented with the substances or the diluents every 24 h and their numbers were examined using a Coulter Z2 ® counter (Coulter Corporation) until they reached senescence (approximately after 13 weeks). The cumulative population doublings performed by each culture were calculated using the following formula: CPD=Σ[PD] where PD=LOG[Nfinal/Ninitial]/LOG[2], where N final represents the number of cells that were measured when each culture reached confluence and N initial represents the number of cells that was initially seeded. • 1.5. Photographs of the cells maintained in cell culture and treated with the various substances for the same time period were taken. • 1.6. […] More specifically, cells that were incubated with quercetin caprylate gave up to 2.8% more population doublings as compared to the population doublings performed by the relative control cultures. Cells that were incubated with the other substances gave up to 2.9% more population doublings as compared to their relative control cultures. • 1.7. […] Cells that were treated with either of the tested substances maintained the young morphology for longer as compared to the control cultures (DMSO-treated and CAP-treated). […] HFL-1 HDFs were cultured as described in 1.1-1.4 for 10 consecutive weeks and were then subjected to β-galactosidase activity staining. • 1.2. Briefly, 10^5 cells from each culture were seeded in 6-well plates. After 24 h cells were washed with PBS (phosphate buffered saline), fixed in 0.2% glutaraldehyde and 2% formaldehyde for 5 min, washed again with PBS, and finally stained for 24 h at 37 °C in the absence of CO2, in staining solution (150 mM NaCl, 2 mM MgCl2, 5 mM K3Fe(CN)6, 40 mM citric acid, and 12 mM sodium phosphate, pH 6.0) containing 1 mg/ml 5-bromo-4-chloro-3-indolyl-β-D-galactoside. Photographs were then taken. • 1.3. […] HFL-1 HDFs that have senesced in vitro were used (growth at 37°C, 5% CO2 and 95% humidity). More specifically, middle aged HFL-1 HDFs (cpd 59) and terminally senescent HFL-1 HDFs (cpd 65) that had senesced in the absence of any substance were used. • 3.2. The cells were seeded and maintained in complete medium (see 1.2). Culture medium supplemented with the substances [final concentration for quercetin (QUER), 18α-glycyrrhetinic acid (18α GA), and hederagenin (HED): 2 µg/ml and for quercetin caprylate (QU-CAP) three concentrations were applied: 0.5, 2 and 5 µg/ml] or the diluents (0.1% DMSO or 0.1% CAP) were added 24 h later. The cells were replenished with fresh media supplemented with the substances or the diluents every 24 h for 1 week and their numbers were then examined using a Coulter Z2 ® counter (Coulter Corporation). • 3.3. […]

[2] = tested on: middle aged and terminally senescent HFL-1 HDFs; assay: Reversal of senescent phenotype: cell number, morphology and β-galactosidase staining after 1 week of treatment; type: cell-based, human; settings: for proliferation (number of cells) / β-galactosidase activity staining: 1 week; for morphology and proliferation: summary of section 3, middle aged or terminally senescent cells
Description: as §1

HFL-1 HDFs = assay: Levels of oxidized (carbonylated) proteins, OxyBlot analysis; type: cell-based, human; settings: 24 h treatment, versus relative control cells
[3] = tested on: proteasome subunits (β5, α7); assay: Immunoblot of proteasome subunit levels in treated cells; type: cell-based, human; settings: 24 h treatment
[4] = tested on: Mouse melanocytes (B10F16 cell line); assay: Cellular whitening of melanocytes (cell pellet photographs); type: cell-based; settings: 72 h
Description: (§2) The steps, methods and results that were obtained regarding the whitening properties of the examined substances are the following: • A) Cellular whitening of melanocytes. • A.1. Mouse melanocytes (B10F16 cell line) were used in in vitro conditions (growth at 37°C, 5% CO2 and 95% humidity). • A.2. The cells were maintained in Dulbecco's modified Eagle's medium (DMEM®; Invitrogen Life Technologies Inc.) supplemented with 10% (v/v) fetal calf serum, 100 Units/ml penicillin, 100 µg/ml strepromycin, 2 mM glutamine and 1% (v/v) non-essential amino acids (complete medium). • A.3. 10^5 cells were seeded in petri dishes and the following day they were fed with medium supplemented with the substances [final concentration for all substances: 5 µg/ml and 10 µg/ml]. Quercetin (QUER), 18α-glycyrrhetinic acid (18α GA) and hederagenin (HED) were diluted in DMSO whereas quercetin caprylate was diluted in caprilic/capric triglycerides (CAP). Therefore, the control cultures were incubated in medium supplemented with 0.1% DMSO or 0.1% CAP. The media were replenished every 24 h and the cells were kept under these conditions constantly for 72 h. Cells were then collected and pelleted and the cell pellet was photographed. • A.4. […] The result was positively correlated to the concentration of quercetin used. • B) Detection of tyrosinase expression. • B.1. Mouse melanocytes were cultured as described in A.1.-A.3. After 72 h of treatment, the cells were collected, lysed and proteins were extracted and subjected to SDS-PAGE followed by immunoblot analysis against tyrosinase. Protein concentrations were determined using the Bradford method with BSA as a standard. • B.2.
Photographs of pellet of melanocytes that were treated with the substances for 72 h.

tyrosinase = assay: Immunoblot of tyrosinase expression in melanocytes; type: cell-based, Mouse; settings: 72 h
Description: as §2
Immunoblot analysis of tyrosinase (70-80 kDa) in melanocytes treated with the substances or the relative diluents. Equal protein loading was verified by stripping the membrane and reprobing them with GAPDH (37 kDa) antibody (bottom panel).

[5] = HFL-1 cells, 2 µg/ml, 13 consecutive weeks
[6] = Table 2, 2 µg/ml, 55 days in culture
[7] = middle aged cells (cpd 59), 2 µg/ml, quercetin caprylate 0.5, 2 and 5 µg/ml
[8] = middle aged cells, 2 µg/ml, quercetin caprylate all three concentrations
[9] = terminally senescent cells (cpd 65), 2 µg/ml, quercetin caprylate 2 and 5 µg/ml
[10] = terminally senescent cells, quercetin 2 µg/ml, quercetin caprylate higher concentrations
[11] = HFL-1 cells, 0, 5 µg/ml, 13 consecutive weeks
[12] = HFL-1 cells, 5 µg/ml, 13 consecutive weeks

Molecule	cpd [1, 5]	cpd, change versus relative diluent control [1, 5]	cpd [1, 6]	appearance of the senescent phenotype [1]	proliferation (number of cells) [2, 7]	β-galactosidase activity staining [2, 8]	morphology and proliferation [2]	levels of oxidized proteins (HFL-1 HDFs)	protein levels of proteasome subunits (β5, α7) [3]	whitening of melanocyte pellet ([4]; lower concentration (5 µg/ml))	proliferation (number of cells) [2, 9]	β-galactosidase activity staining [2, 10]	protein levels of tyrosinase (tyrosinase; 5 µg/ml and 10 µg/ml)	further results
CC1(C)[C@@H](O)CC[C@]2(C)[C@H]3C(=O)C=C4[C@H]5C[C@@](C)(C(=O)O)CC[C@]5(C)CC[C@@]4(C)[C@]3(C)CC[C@@H]12 [18α-glycyrrhetinic acid]	67	+2.9%	65.02	delay in the appearance of the senescent phenotype	higher proliferation rates	less positive to β-galactosidase activity staining	regained a younger morphology and were induced to limited but significant proliferation	slightly lower levels of oxidized carbonylated proteins; also recorded: lower amounts of oxidized proteins	similar	whitening potential				
CC1(C)CC[C@]2(C(=O)O)CC[C@]3(C)C(=CC[C@@H]4[C@@]5(C)CC[C@H](O)[C@@](C)(CO)[C@@H]5CC[C@]43C)[C@@H]2C1 [Hederagenin]	65.4	+0.5%	65.06						did not detect any up-regulation	whitening potential				protein levels of tyrosinase (tyrosinase; high concentration (10 µg/ml)): reduced protein levels of tyrosinase
O=c1c(O)c(-c2ccc(O)c(O)c2)oc2cc(O)cc(O)c12 [Quercetin]	57.24		54.39	delay in the appearance of the senescent phenotype	higher proliferation rates	less positive to β-galactosidase activity staining	regained a younger morphology and were induced to limited but significant proliferation		elevated protein levels		limited but sigmificant cell proliferation	many of those cells were negative for β-gatactosidase activity	reduced protein levels of tyrosinase	whitening effect compared to the other substances ([4]; 5 µg/ml and 10 µg/ml): notably more intensed; whitening of melanocyte pellet ([4]; both concentrations (5 µg/ml and 10 µg/ml)): whitening potential
quercetin caprylate	66.0	+2.8%	64.87	delay in the appearance of the senescent phenotype	higher proliferation rates	less positive to β-galactosidase activity staining	regained a younger morphology and were induced to limited but significant proliferation	less oxidized proteins; also recorded: lower amounts of oxidized proteins	elevated protein levels		limited but sigmificant cell proliferation	many of those cells were negative for β-gatactosidase activity	reduced protein levels of tyrosinase	cpd [1, 11]: 65.9; cpd, change versus relative diluent control [1, 11]: +2.6%; cpd [1, 12]: 65.4; cpd, change versus relative diluent control [1, 12]: +1.9%; cpd ([1]; Table 2, 0,5 µg/ml, 55 days in culture): 65.09; cpd ([1]; Table 2, 5 µg/ml, 55 days in culture): 63.96; more population doublings as compared to the relative control cultures ([1]; summary of Table 1, quercetin caprylate 0.5, 2 and 5 µg/ml, other substances 2 µg/ml): up to 2.8%
